Results reported in ChEMBL document CHEMBL1125472, “5-lipoxygenase: properties, pharmacology, and the quinolinyl(bridged)aryl class of inhibitors” (J Med Chem, 1992).

What was measured:
RBL-1 [1] = test: The compound was tested for inhibitory activity in rat RBL-1 cells; type: functional, cell-based
[2] = molecular target: T1, Polyunsaturated fatty acid 5-lipoxygenase (Rattus norvegicus, UniProt P12527); test: The compound was tested for inhibitory activity against 5-lipoxygenase in rat RBL-1; type: cell-based
T1 sequence (P12527 whole entry): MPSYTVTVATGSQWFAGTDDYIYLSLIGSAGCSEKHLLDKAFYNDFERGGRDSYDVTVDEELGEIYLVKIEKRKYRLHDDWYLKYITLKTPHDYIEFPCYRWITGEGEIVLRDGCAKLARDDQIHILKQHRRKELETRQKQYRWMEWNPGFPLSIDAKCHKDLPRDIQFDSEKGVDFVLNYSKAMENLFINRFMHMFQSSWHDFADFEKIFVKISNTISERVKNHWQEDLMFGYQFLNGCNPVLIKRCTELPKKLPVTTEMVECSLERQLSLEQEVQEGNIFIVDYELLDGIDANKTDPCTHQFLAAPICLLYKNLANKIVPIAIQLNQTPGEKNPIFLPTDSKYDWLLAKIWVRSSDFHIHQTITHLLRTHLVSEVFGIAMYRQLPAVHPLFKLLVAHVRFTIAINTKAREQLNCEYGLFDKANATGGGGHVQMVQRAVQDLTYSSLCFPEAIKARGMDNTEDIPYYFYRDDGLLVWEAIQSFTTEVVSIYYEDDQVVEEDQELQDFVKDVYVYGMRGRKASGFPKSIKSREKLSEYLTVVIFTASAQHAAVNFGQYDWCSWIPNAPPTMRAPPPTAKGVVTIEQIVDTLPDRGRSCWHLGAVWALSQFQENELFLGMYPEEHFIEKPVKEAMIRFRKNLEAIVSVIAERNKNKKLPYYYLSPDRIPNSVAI

RBL-1 [3] = test: The compound was tested for inhibitory activity against 5-HETE synthesis in rat RBL-1; type: functional, cell-based
Mus musculus [4] = species on record: Mus musculus; test: The compound was tested for inhibitory activity which inhibits LTC4 synthesis by zymosan-activated mouse peritoneal macrophages; type: functional
Cavia porcellus [5] = species on record: Cavia porcellus; test: The compound was tested for blocking of LTD4-induced contractions of guinea pig trachea; type: functional; details: read-out: pA2 (converted)
[6] = The compound was tested for inhibitory activity which inhibits prostaglandin E2[PGE2] synthesis by zymosan-activated mouse peritoneal macrophages; type: functional
Rattus norvegicus [7] = species on record: Rattus norvegicus; test: The compound was tested for inhibitory activity against synthesis of immunoreactive thromboxane B2 in rat PMNs; type: functional
Cavia porcellus [8] = test: The inhibitory dose for antigen induced bronchoconstriction in guinea pig after peroral administration; type: functional; details: po, read-out: ID50 (the source's name)
Rattus norvegicus [9] = test: The compound was tested for inhibition in rat carrageenan paw edema assay; type: functional
Rattus norvegicus [10] = species on record: Rattus norvegicus; test: The compound was tested for inhibitory activity against synthesis of immunoreactive LTB4; type: functional
[11] = Oral bioavailability was determined; range 49-102%; type: ADME, organism-based; details: in vivo, read-out: Bioavailabiility
[12] = Plasma half-life was determined; 0.5-17.7h; type: ADME
[13] = molecular target: T1, Polyunsaturated fatty acid 5-lipoxygenase; test: The compound was tested for inhibitory activity against 5-lipoxygenase using rat polymorphonuclear leukocytes[PMNS]
Cavia porcellus [14] = test: The compound was tested for inhibition of LTD4-induced bronchoconstriction in guinea pig at 50 mg/kg (in vivo); type: functional; details: read-out: Inhibition
Cyclooxygenase = molecular target: T2, Cyclooxygenase (Rattus norvegicus, UniProt P35355+Q63921); test: The compound was tested for inhibitory activity against Prostaglandin G/H synthase using rat polymorphonuclear leukocytes[PMNS]
T2 sequence (P35355 whole entry): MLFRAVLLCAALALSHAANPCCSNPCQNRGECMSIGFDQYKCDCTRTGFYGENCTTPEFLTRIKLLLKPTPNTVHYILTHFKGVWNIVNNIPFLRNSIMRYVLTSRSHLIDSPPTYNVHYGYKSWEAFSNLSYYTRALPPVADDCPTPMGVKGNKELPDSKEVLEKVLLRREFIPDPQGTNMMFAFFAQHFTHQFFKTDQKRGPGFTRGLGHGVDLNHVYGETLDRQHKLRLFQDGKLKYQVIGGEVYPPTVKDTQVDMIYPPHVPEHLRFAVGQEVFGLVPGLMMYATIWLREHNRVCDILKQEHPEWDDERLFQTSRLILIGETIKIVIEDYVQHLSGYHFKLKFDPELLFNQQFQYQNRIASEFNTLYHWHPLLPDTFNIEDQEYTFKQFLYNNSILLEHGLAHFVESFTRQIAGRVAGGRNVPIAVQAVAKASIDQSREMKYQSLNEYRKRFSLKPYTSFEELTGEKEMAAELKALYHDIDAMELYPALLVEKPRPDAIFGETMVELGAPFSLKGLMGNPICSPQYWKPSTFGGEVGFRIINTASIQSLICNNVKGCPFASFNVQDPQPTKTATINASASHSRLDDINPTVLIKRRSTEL
T2 sequence (Q63921 whole entry): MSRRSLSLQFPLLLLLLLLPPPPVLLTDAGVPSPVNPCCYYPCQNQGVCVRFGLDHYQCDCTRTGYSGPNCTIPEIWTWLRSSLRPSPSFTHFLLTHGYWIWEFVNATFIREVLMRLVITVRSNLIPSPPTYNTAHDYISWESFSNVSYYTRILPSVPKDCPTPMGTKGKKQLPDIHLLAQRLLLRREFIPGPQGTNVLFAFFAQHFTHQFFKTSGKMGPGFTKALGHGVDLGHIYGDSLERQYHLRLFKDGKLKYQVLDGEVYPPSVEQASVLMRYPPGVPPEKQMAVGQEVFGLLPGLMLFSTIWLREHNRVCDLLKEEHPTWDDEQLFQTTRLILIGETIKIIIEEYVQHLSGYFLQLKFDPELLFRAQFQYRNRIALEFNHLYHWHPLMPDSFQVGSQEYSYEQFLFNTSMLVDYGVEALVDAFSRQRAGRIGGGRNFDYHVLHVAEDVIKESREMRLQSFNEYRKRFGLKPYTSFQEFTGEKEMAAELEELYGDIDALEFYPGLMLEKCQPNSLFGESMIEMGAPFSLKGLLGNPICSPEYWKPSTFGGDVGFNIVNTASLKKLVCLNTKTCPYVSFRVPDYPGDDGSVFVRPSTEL

[15] = molecular target: T3, Prostaglandin G/H synthase (cyclooxygenase) (Mus musculus, UniProt P22437+Q05769); test: The compound was tested for inhibitory activity against Prostaglandin G/H synthase in mouse macrophage; type: protein assay
T3 sequence (P22437 whole entry): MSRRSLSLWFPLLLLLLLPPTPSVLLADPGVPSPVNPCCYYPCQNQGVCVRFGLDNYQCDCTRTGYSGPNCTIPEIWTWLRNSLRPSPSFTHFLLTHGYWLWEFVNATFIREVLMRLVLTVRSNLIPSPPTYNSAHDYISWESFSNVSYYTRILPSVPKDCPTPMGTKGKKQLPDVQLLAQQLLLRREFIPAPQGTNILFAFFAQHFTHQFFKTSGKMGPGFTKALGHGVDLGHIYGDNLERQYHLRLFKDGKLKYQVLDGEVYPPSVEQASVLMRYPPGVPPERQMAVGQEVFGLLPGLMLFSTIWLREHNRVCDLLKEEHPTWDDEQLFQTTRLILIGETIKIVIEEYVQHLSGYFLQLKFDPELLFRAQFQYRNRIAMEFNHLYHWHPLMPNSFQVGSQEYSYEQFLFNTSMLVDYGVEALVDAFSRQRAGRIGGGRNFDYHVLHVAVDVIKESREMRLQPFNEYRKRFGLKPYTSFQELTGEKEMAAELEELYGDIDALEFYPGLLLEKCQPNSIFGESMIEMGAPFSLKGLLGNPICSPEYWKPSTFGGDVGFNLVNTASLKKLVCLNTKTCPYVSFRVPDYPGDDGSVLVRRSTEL
T3 sequence (Q05769 whole entry): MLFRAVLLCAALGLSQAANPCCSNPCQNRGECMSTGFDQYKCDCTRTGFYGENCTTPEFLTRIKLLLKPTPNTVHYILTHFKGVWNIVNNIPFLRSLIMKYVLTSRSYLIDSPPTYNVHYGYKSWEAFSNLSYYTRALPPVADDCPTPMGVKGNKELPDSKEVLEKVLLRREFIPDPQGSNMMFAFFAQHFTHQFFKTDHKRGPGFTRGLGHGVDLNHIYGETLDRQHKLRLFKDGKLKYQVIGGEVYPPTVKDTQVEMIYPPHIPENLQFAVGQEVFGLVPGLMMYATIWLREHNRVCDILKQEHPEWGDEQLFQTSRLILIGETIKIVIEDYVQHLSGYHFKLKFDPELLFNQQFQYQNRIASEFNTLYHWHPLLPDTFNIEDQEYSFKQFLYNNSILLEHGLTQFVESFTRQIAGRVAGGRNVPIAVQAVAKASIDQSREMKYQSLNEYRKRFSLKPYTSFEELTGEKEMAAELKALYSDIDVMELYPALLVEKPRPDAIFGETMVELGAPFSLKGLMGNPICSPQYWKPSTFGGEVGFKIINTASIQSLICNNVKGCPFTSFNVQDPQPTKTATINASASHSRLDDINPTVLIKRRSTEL

RBL-2H3 [16] = test: The compound was tested for inhibition of translocation in SAR in RBL-2H3 cells; type: functional, Rattus norvegicus
Mus musculus [17] = species on record: Mus musculus; test: The compound was tested for inhibitory activity against LTC4 synthesis in mouse peritoneal macrophages; type: functional
[18] = molecular target: T4, Polyunsaturated fatty acid 5-lipoxygenase (Rattus norvegicus) (UniProt P12527); test: The compound was tested for inhibition of isolated 5-Lipoxygenase
T4 sequence (whole entry): T1 sequence (P12527 whole entry)

Mus musculus [19] = species on record: Mus musculus; test: The compound was tested for inhibition of thromboxane B2 synthesis; type: functional, organism-based
Mus musculus [20] = species on record: Mus musculus; test: The compound was tested for inhibition of prostaglandin E2[PGE2] synthesis; type: functional, organism-based
RBL-2H3 [21] = test: The compound was tested for inhibition LTC4 synthesis; type: functional, Rattus norvegicus
Rattus norvegicus [22] = species on record: Rattus norvegicus; test: The compound was tested for inhibitory activity against […] synthesis in rat macrophages; type: functional
[23] = molecular target: T5, Polyunsaturated fatty acid 5-lipoxygenase (Homo sapiens, UniProt P09917); test: The compound was tested for inhibitory activity against 5-lipoxygenase in human polymorphonuclear leukocytes[PMNS]; type: cell-based
T5 sequence (P09917 whole entry): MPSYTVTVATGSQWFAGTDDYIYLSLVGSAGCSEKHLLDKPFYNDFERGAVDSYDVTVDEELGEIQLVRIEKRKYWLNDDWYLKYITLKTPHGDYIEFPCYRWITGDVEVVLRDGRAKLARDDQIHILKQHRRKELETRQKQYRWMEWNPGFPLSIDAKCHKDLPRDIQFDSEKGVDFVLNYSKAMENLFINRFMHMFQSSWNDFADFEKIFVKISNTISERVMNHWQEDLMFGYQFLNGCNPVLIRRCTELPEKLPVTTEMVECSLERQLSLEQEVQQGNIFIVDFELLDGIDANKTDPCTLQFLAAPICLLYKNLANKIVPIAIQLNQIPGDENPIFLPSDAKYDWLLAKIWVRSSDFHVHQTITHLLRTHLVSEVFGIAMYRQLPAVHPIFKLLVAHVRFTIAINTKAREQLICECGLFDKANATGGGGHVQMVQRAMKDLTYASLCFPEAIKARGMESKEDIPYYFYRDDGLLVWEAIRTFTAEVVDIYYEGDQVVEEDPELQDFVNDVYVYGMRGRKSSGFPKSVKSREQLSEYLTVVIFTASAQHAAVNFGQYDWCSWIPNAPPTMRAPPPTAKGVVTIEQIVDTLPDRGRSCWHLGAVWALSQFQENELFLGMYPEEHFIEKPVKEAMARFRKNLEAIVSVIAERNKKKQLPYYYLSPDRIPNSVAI

Mus musculus [24] = test: The effective dose for inhibition of mouse zymosan peritonitis (in vivo); type: functional
[25] = molecular target: Cyclooxygenase (Rattus norvegicus) (UniProt P35355+Q63921); test: The compound was tested for inhibition of Prostaglandin G/H synthase in rat polymorphonuclear leukocytes[PMNS] at 100 uM concentration; type: functional, cell-based
Rattus norvegicus [26] = test: The effective dose after peroral administration for antiinflammatory activity against rat carrageenan edema; type: functional; details: po
[27] = molecular target: T1, Polyunsaturated fatty acid 5-lipoxygenase; test: The compound was tested for inhibitory activity against 5-lipoxygenase in rat polymorphonuclear leukocytes[PMNS] (in vitro); type: cell-based

Compound C[C@H](OCC(=O)O)[C@@H](C)Sc1cc(C(C)(C)C)c(O)c(C(C)(C)C)c1 has an IC50 (RBL-1 [1]) of 3.7 µM.
With CCN1C(=S)N(c2ccc(N3CCN(c4ccc(O)cc4)CC3)cc2)C(=O)C1(C)C the IC50 [2] was 0.5 µM.
Work on CC1=C(C)C(=O)C(Cc2cccnc2)=C(C)C1=O yielded an IC50 (RBL-1 [3]) of 0.062 µM.
O=S(=O)(Nc1cccc(OCc2ccc3ccccc3n2)c1)C(F)(F)F [RITOLUKAST] gave an IC50 (Mus musculus [4]) of 4.4 µM, a Kb (Cavia porcellus [5]) of 0.024 µM and an IC50 [6] of 4.3 µM. It also gave an IC50 (Rattus norvegicus [7]) of 3.3 µM, an ED50 (Cavia porcellus [8]) of 0.6 mg/kg and an Inhibition (Rattus norvegicus [9]) of 20%. It also gave an IC50 (Rattus norvegicus [10]) of 4.6 µM, a bioavailability [11] of 49% and a half-life [12] of 30 min.
For Oc1cccc(OCc2ccc3ccccc3n2)c1, the IC50 [13] was 6.07 µM, the inhibition in vivo at 50 mg/kg (Cavia porcellus [14]) was 82% and the IC50 (Cyclooxygenase) was > 100 µM.
In the case of Cc1c(CC(=O)O)c2cc(OCc3ccc4ccccc4n3)ccc2n1Cc1ccc(Cl)cc1, the IC50 [15] is reported as 0.004 µM.
Compound COC(=O)CCC(=O)N(O)c1cccc(OCc2ccc3ccccc3n2)c1 has an Inhibition (RBL-2H3 [16]) of 750 nM, an IC50 (Mus musculus [17]) of 0.45 µM and an Inhibition [18] of 1530 nM. The IC50 (Mus musculus [19]) was 4.52 µM, the IC50 (Mus musculus [20]) was 7.2 µM and the Inhibition (RBL-2H3 [21]) was 780 nM.
With CC1=C(C)C(=O)C(CCCCC#CCCCC#CCO)=C(C)C1=O [DOCEBENONE] the IC50 (Rattus norvegicus [22]) was 0.08 µM.
With O=C(O)c1ccc(CN(Cc2cccc(F)c2)c2ccc(OCc3ccc4ccccc4n3)cc2)cc1 the IC50 [23] was 0.02 µM.
For CC(C(=O)O)c1ccc2cc(OCc3ccc4ccccc4n3)ccc2c1 (stereo not drawn), the ED50 (Mus musculus [24]) was 11.1 mg/kg, the Inhibition [25] was 30% and the ED50 (Rattus norvegicus [26]) was 75 mg/kg. It also gave an IC50 [27] of 0.13 µM.
